Experimental data: ChEMBL document CHEMBL1155955, “Structure-activity relationship studies of the chromosome segregation inhibitor, Incentrom A” (2008)
In brackets after ≈: the same amount, converted by molar mass. Activity calls are given as the source filed them. The calls are words filed in the database; no cut-off is given here.

test system: Saccharomyces cerevisiae; test: Inhibition of chromosome segregation in yeast YPH278 at 5 uM; format: functional, organism-based

In the case of C(=C\c1ccccc1)/CN1CCN(CCCCn2c3ccccc3c3ccccc32)CC1, the Activity is reported as “Active”.
For [N-]=[N+]=Nc1ccc(/C=C/CN2CCN(CCCCn3c4ccccc4c4ccccc43)CC2)cc1, the Activity was “Active”.

test system: Saccharomyces cerevisiae; test: Inhibition of chromosome segregation in yeast YPH278 at 15 uM; format: functional, organism-based

OC(CN1CCN(C/C=C/c2ccccc2)CC1)Cn1c2ccccc2c2ccccc21 (stereo unspecified) was tested, and the Activity was “Active”.

test system: Saccharomyces cerevisiae; test: Antiproliferative activity against yeast YPH278 assessed as reduction in cell viability after 24 hrs; format: functional

Point of comparison: Nc1ccc(CCCN2CCN(CCCCn3c4ccccc4c4ccccc43)CC2)cc1, MIC 16 µM (≈ 7.05 µg/mL). Against it:
- C(=C\c1ccccc1)/CN1CCN(CCCCCCn2c3ccccc3c3ccccc32)CC1 — 2.3-fold lower, 7 µM (≈ 3.16 µg/mL)
- O=C(OC(CN1CCN(C/C=C/c2ccccc2)CC1)Cn1c2ccccc2c2ccccc21)c1ccccc1 (stereo unspecified) — higher, > 45 µM
- CC(=O)Nc1ccc2c(c1)c1ccccc1n2CCCCN1CCN(C/C=C/c2ccccc2)CC1 — higher, > 45 µM
- C(=C\c1ccccc1)/CN1CCN(CCCCn2c3c(c4ccccc42)CCCC3)CC1 — 1.6-fold lower, 10 µM (≈ 4.28 µg/mL)
- Oc1cccc(/C=C/CN2CCN(CCCCn3c4ccccc4c4ccccc43)CC2)c1 — 1.7-fold higher, 27 µM (≈ 11.9 µg/mL)
- OC(CN1CCN(C/C=C/c2ccccc2)CC1)Cn1c2c(c3ccccc31)CCCC2 (stereo unspecified) — 1.6-fold higher, 25 µM (≈ 10.7 µg/mL)
- COc1cccc(/C=C/CN2CCN(CCCCn3c4ccccc4c4ccccc43)CC2)c1 — within 1.5-fold, 12 µM (≈ 5.44 µg/mL)
- OC(CN1CCN(C/C=C/c2ccccc2)CC1)CN(c1ccccc1)c1ccccc1 (stereo unspecified) — 2.8-fold higher, 45 µM (≈ 19.2 µg/mL)
- O=[N+]([O-])c1ccc2c(c1)c1ccccc1n2CCCCN1CCN(C/C=C/c2ccccc2)CC1 — 3.2-fold lower, 5 µM (≈ 2.34 µg/mL)
- c1ccc2c(c1)c1ccccc1n2CCCCN1CCN(CCCC2CCCCC2)CC1 — 3.2-fold lower, 5 µM (≈ 2.16 µg/mL)
- c1ccc(CCCCN2CCN(CCCCn3c4ccccc4c4ccccc43)CC2)cc1 — 3.2-fold lower, 5 µM (≈ 2.2 µg/mL)
- O[C@@H](CN1CCN(C/C=C/c2ccccc2)CC1)Cn1c2ccccc2c2ccccc21 — within 1.5-fold, 15 µM (≈ 6.38 µg/mL)
- O=C(Nc1ccc2c(c1)c1ccccc1n2CCCCN1CCN(C/C=C/c2ccccc2)CC1)c1ccccc1 — higher, > 45 µM
- O=c1c2ccccc2n(CCCCN2CCN(C/C=C/c3ccccc3)CC2)c2ccccc12 — higher, > 45 µM
- c1ccc(COc2ccc(CCCN3CCN(CCCCn4c5ccccc5c5ccccc54)CC3)cc2)cc1 — higher, > 45 µM
- c1ccc2cc(CN3CCN(CCCCn4c5ccccc5c5ccccc54)CC3)ccc2c1 — 1.9-fold higher, 30 µM (≈ 13.4 µg/mL)
- C(=C\c1ccccc1)/CN1CCN(CCCCn2c3ccccc3c3ccccc32)CC1 — 3.2-fold lower, 5 µM (≈ 2.12 µg/mL)
- Nc1ccc(/C=C/CN2CCN(CCCCn3c4ccccc4c4ccccc43)CC2)cc1 — within 1.5-fold, 15 µM (≈ 6.58 µg/mL)
- c1ccc(CCN2CCN(CCCCn3c4ccccc4c4ccccc43)CC2)cc1 — 1.8-fold lower, 9 µM (≈ 3.7 µg/mL)
- CC(=O)OC(CN1CCN(C/C=C/c2ccccc2)CC1)Cn1c2ccccc2c2ccccc21 (stereo unspecified) — within 1.5-fold, 18 µM (≈ 8.42 µg/mL)
- CN(C)c1ccc(/C=C/CN2CCN(CCCCn3c4ccccc4c4ccccc43)CC2)cc1 — 2.6-fold higher, 42 µM (≈ 19.6 µg/mL)
- O=C(OC(Cc1ccccc1)CN1CCN(CCCCn2c3ccccc3c3ccccc32)CC1)c1ccccc1 (stereo unspecified) — higher, > 45 µM
- OC(CN1CCN(C/C=C/c2ccccc2)CC1)CN1c2ccccc2Oc2ccccc21 (stereo unspecified) — 2.3-fold lower, 7 µM (≈ 3.09 µg/mL)
- C(=C\c1ccccc1)/CN1CCN(CCCCCCCCn2c3ccccc3c3ccccc32)CC1 — 2.8-fold higher, 44 µM (≈ 21.1 µg/mL)
- c1ccc(C2OC2CN2CCN(CCCCn3c4ccccc4c4ccccc43)CC2)cc1 (stereo unspecified) — 2.3-fold lower, 7 µM (≈ 3.08 µg/mL)
- [N-]=[N+]=NC(CN1CCN(C/C=C/c2ccccc2)CC1)Cn1c2ccccc2c2ccccc21 (stereo unspecified) — higher, > 45 µM
- OC(Cc1ccccc1)CN1CCN(CCCCn2c3ccccc3c3ccccc32)CC1 (stereo unspecified) — within 1.5-fold, 12 µM (≈ 5.3 µg/mL)
- OC(CN1CCN(Cc2ccccc2)CC1)Cn1c2ccccc2c2ccccc21 (stereo unspecified) — higher, > 45 µM
- Oc1ccc(CCCN2CCN(CCCCn3c4ccccc4c4ccccc43)CC2)cc1 — 1.8-fold higher, 28 µM (≈ 12.4 µg/mL)
- CCCCCCCCOc1ccc(CCCN2CCN(CCCCn3c4ccccc4c4ccccc43)CC2)cc1 — higher, > 45 µM
- [N-]=[N+]=Nc1ccc(/C=C/CN2CCN(CCCCn3c4ccccc4c4ccccc43)CC2)cc1 — 3.2-fold lower, 5 µM (≈ 2.32 µg/mL)
- CCCCCCOc1ccc(CCCN2CCN(CCCCn3c4ccccc4c4ccccc43)CC2)cc1 — higher, > 45 µM
- OC(CN1CCN(CCCc2ccccc2)CC1)Cn1c2ccccc2c2ccccc21 (stereo unspecified) — within 1.5-fold, 20 µM (≈ 8.55 µg/mL)
- c1ccc(CCCCCN2CCN(CCCCn3c4ccccc4c4ccccc43)CC2)cc1 — 4-fold lower, 4 µM (≈ 1.81 µg/mL)
- OC(CN1CCN(C/C=C/c2ccccc2)CC1)Cn1c2ccccc2c2ccccc21 (stereo unspecified) — within 1.5-fold, 15 µM (≈ 6.38 µg/mL)
- C(=C\c1ccccc1)/CN1CCN(CCCn2c3ccccc3c3ccccc32)CC1 — within 1.5-fold, 12 µM (≈ 4.91 µg/mL)
- OC(CN1CCN(C/C=C/c2ccccc2)CC1)Cn1ccc2ccccc21 (stereo unspecified) — higher, > 45 µM
- COc1ccc(CCCN2CCN(CCCCn3c4ccccc4c4ccccc43)CC2)cc1 — 2-fold lower, 8 µM (≈ 3.65 µg/mL)
- CC(=O)OC(Cc1ccccc1)CN1CCN(CCCCn2c3ccccc3c3ccccc32)CC1 (stereo unspecified) — within 1.5-fold, 18 µM (≈ 8.71 µg/mL)
- O[C@H](CN1CCN(C/C=C/c2ccccc2)CC1)Cn1c2ccccc2c2ccccc21 — within 1.5-fold, 14 µM (≈ 5.96 µg/mL)
- O=C(CN1CCN(C/C=C/c2ccccc2)CC1)Cn1c2ccccc2c2ccccc21 — higher, > 45 µM
- C(=C\c1ccccc1)/CN1CCN(CCCCCn2c3ccccc3c3ccccc32)CC1 — 2.7-fold lower, 6 µM (≈ 2.63 µg/mL)
